Laboratory results published in patent US11793849B2, “Method of Chinese herbal medicine extract used for treating multiple diseases caused by drug resistant bacteria infection” (priority 2016, dated 2023).
Converted amounts (≈) assume the structure as drawn. Where two headings read alike, the source gives them in different places.

Columns and labels:
[1] = tested on: MDRPA; assay: MIC determination, microdilution broth method;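 note: broth microdilution per NCCLS recommendations, testing Pithecellobium clypearia water or ethanol extracts against multidrug-resistant Pseudomonas aeruginosa, with MIC50 and MIC90 derived statistically from individual MICs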
Experimental: Determination methods of a Minimal Inhibitory Concentration (MIC) and a Minimum Bactericidal Concentration (MBC) of a test product: the MIC and the MBC of the Pithecellobium clypearia Benth water or ethanol extract to the MDRAB are determined by a microdilution broth method. And it is operated by referring to the microdilution broth method recommended by National Committee for Clinical Laboratory Standards (NCCLS).
By determining the MIC and the MBC of the drug and making statistics of the data to obtain MIC50, MIC90, MBC50 and MBC90, the effect of the MDRA resistance of the drug is evaluated.
Test method: the MDRPA (serial No.: P1-P20) strains are tested and are evaluated with reference to the method in the first embodiment.

[2] = tested on: MDRPA; assay: Checkerboard assay (combined-use MIC, FIC); type: cell-based, Pseudomonas aeruginosa; details: 20 MDRPAs; antibiotic with 10% ethanol extract
Outline: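 Checkerboard combinations of S20b and antibiotic run per NCCLS method against ESBL E. coli, MDR A. baumannii and MDR P. aeruginosa.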

[3] = 20 MDRPAs, EA = 60% ethanol extract
[4] = 20 MDRPAs, EA = 95% ethanol extract
[5] = MDRPAs P1-P20, single use, EA=P. clypearia 10% ethanol extract
[6] = MDRPAs P1-P20, single use, EA=P. clypearia water extract
[7] = single use, 20 MDRPAs, section of the 10% ethanol extract
[8] = single use, 20 MDRPAs, section of the 60% ethanol extract
[9] = single use, 20 MDRPAs, section of the 95% ethanol extract

With `CC(C)(O/N=C(\C(=O)N[C@@H]1C(=O)N2C(C(=O)[O-])=C(C[n+]3ccccc3)CS[C@H]12)c1csc(N)n1)C(=O)O` [CAZ, Ceftazidime] the MIC50 [1, 3] was 32 µg/mL (≈ 58.5 µM), the MIC90 [1, 3] was 256 µg/mL (≈ 468 µM) and the “MIC Range” value [1, 3] was 2 to 512 µg/mL. For the same compound, the MIC50 [1, 4] was 32 µg/mL (≈ 58.5 µM), the MIC90 [1, 4] was 256 µg/mL (≈ 468 µM) and the “MIC Range” value [1, 4] was 2 to 512 µg/mL. For the same compound, the MIC50 [1, 5] was 32 µg/mL (≈ 58.5 µM), the MIC90 [1, 5] was 256 µg/mL (≈ 468 µM) and the “MIC Range” value [1, 5] was 2 to 512 µg/mL. The MIC50 [1, 6] was 32 µg/mL (≈ 58.5 µM), the MIC90 [1, 6] was 256 µg/mL (≈ 468 µM) and the “MIC Range” value [1, 6] was 2 to 512 µg/mL. For the same compound, the MIC50 ([1]; Pseudomonas aeruginosa) was 32 µg/mL (≈ 58.5 µM), the MIC90 ([1]; Pseudomonas aeruginosa) was 256 µg/mL (≈ 468 µM) and the MIC ([1]; Pseudomonas aeruginosa, read-out: MIC (single use), strain P1, EA=P. clypearia 10% ethanol extract) was 32 µg/mL (≈ 58.5 µM). For the same compound, the MIC ([1]; Pseudomonas aeruginosa, read-out: MIC (single use), strain P1, EA=P. clypearia water extract) was 32 µg/mL (≈ 58.5 µM), the MIC ([1]; Pseudomonas aeruginosa, read-out: MIC (single use), strain P2, EA=P. clypearia 10% ethanol extract) was 64 µg/mL (≈ 117 µM) and the MIC ([1]; Pseudomonas aeruginosa, read-out: MIC (single use), strain P2, EA=P. clypearia water extract) was 64 µg/mL (≈ 117 µM). The MIC ([1]; Pseudomonas aeruginosa, read-out: MIC (single use), strain P3, EA=P. clypearia 10% ethanol extract) was 4 µg/mL (≈ 7.32 µM), the MIC ([1]; Pseudomonas aeruginosa, read-out: MIC (single use), strain P3, EA=P. clypearia water extract) was 4 µg/mL (≈ 7.32 µM) and the MIC ([1]; Pseudomonas aeruginosa, read-out: MIC (single use), strain P4, EA=P. clypearia 10% ethanol extract) was 256 µg/mL (≈ 468 µM). The MIC ([1]; Pseudomonas aeruginosa, read-out: MIC (single use), strain P4, EA=P. clypearia water extract) was 256 µg/mL (≈ 468 µM), the MIC ([1]; Pseudomonas aeruginosa, read-out: MIC (single use), strain P5, EA=P. clypearia 10% ethanol extract) was 64 µg/mL (≈ 117 µM) and the MIC ([1]; Pseudomonas aeruginosa, read-out: MIC (single use), strain P5, EA=P. clypearia water extract) was 64 µg/mL (≈ 117 µM). It also gave an MIC ([1]; Pseudomonas aeruginosa, read-out: MIC (single use), strain P6, EA=P. clypearia 10% ethanol extract) of 512 µg/mL (≈ 937 µM), an MIC ([1]; Pseudomonas aeruginosa, read-out: MIC (single use), strain P6, EA=P. clypearia water extract) of 512 µg/mL (≈ 937 µM) and an MIC ([1]; Pseudomonas aeruginosa, read-out: MIC (single use), strain P7, EA=P. clypearia 10% ethanol extract) of 64 µg/mL (≈ 117 µM). The MIC ([1]; Pseudomonas aeruginosa, read-out: MIC (single use), strain P7, EA=P. clypearia water extract) was 64 µg/mL (≈ 117 µM), the MIC ([1]; Pseudomonas aeruginosa, read-out: MIC (single use), strain P8, EA=P. clypearia 10% ethanol extract) was 256 µg/mL (≈ 468 µM) and the MIC ([1]; Pseudomonas aeruginosa, read-out: MIC (single use), strain P8, EA=P. clypearia water extract) was 256 µg/mL (≈ 468 µM). For the same compound, the MIC ([1]; Pseudomonas aeruginosa, read-out: MIC (single use), strain P9, EA=P. clypearia 10% ethanol extract) was 8 µg/mL (≈ 14.6 µM), the MIC ([1]; Pseudomonas aeruginosa, read-out: MIC (single use), strain P9, EA=P. clypearia water extract) was 8 µg/mL (≈ 14.6 µM) and the MIC ([1]; Pseudomonas aeruginosa, read-out: MIC (single use), strain P10, EA=P. clypearia 10% ethanol extract) was 4 µg/mL (≈ 7.32 µM). For the same compound, the MIC ([1]; Pseudomonas aeruginosa, read-out: MIC (single use), strain P10, EA=P. clypearia water extract) was 4 µg/mL (≈ 7.32 µM), the MIC ([1]; Pseudomonas aeruginosa, read-out: MIC (single use), strain P11, EA=P. clypearia 10% ethanol extract) was 2 µg/mL (≈ 3.66 µM) and the MIC ([1]; Pseudomonas aeruginosa, read-out: MIC (single use), strain P11, EA=P. clypearia water extract) was 2 µg/mL (≈ 3.66 µM). For the same compound, the MIC ([1]; Pseudomonas aeruginosa, read-out: MIC (single use), strain P12, EA=P. clypearia 10% ethanol extract) was 64 µg/mL (≈ 117 µM), the MIC ([1]; Pseudomonas aeruginosa, read-out: MIC (single use), strain P12, EA=P. clypearia water extract) was 64 µg/mL (≈ 117 µM) and the MIC ([1]; Pseudomonas aeruginosa, read-out: MIC (single use), strain P13, EA=P. clypearia 10% ethanol extract) was 16 µg/mL (≈ 29.3 µM). For the same compound, the MIC ([1]; Pseudomonas aeruginosa, read-out: MIC (single use), strain P13, EA=P. clypearia water extract) was 16 µg/mL (≈ 29.3 µM), the MIC ([1]; Pseudomonas aeruginosa, read-out: MIC (single use), strain P14, EA=P. clypearia 10% ethanol extract) was 16 µg/mL (≈ 29.3 µM) and the MIC ([1]; Pseudomonas aeruginosa, read-out: MIC (single use), strain P14, EA=P. clypearia water extract) was 16 µg/mL (≈ 29.3 µM). The MIC ([1]; Pseudomonas aeruginosa, read-out: MIC (single use), strain P15, EA=P. clypearia 10% ethanol extract) was 256 µg/mL (≈ 468 µM), the MIC ([1]; Pseudomonas aeruginosa, read-out: MIC (single use), strain P15, EA=P. clypearia water extract) was 256 µg/mL (≈ 468 µM) and the MIC ([1]; Pseudomonas aeruginosa, read-out: MIC (single use), strain P16, EA=P. clypearia 10% ethanol extract) was 32 µg/mL (≈ 58.5 µM). It also gave an MIC ([1]; Pseudomonas aeruginosa, read-out: MIC (single use), strain P16, EA=P. clypearia water extract) of 32 µg/mL (≈ 58.5 µM), an MIC ([1]; Pseudomonas aeruginosa, read-out: MIC (single use), strain P17, EA=P. clypearia 10% ethanol extract) of 32 µg/mL (≈ 58.5 µM) and an MIC ([1]; Pseudomonas aeruginosa, read-out: MIC (single use), strain P17, EA=P. clypearia water extract) of 32 µg/mL (≈ 58.5 µM). It also gave an MIC ([1]; Pseudomonas aeruginosa, read-out: MIC (single use), strain P18, EA=P. clypearia 10% ethanol extract) of 64 µg/mL (≈ 117 µM), an MIC ([1]; Pseudomonas aeruginosa, read-out: MIC (single use), strain P18, EA=P. clypearia water extract) of 64 µg/mL (≈ 117 µM) and an MIC ([1]; Pseudomonas aeruginosa, read-out: MIC (single use), strain P19, EA=P. clypearia 10% ethanol extract) of 4 µg/mL (≈ 7.32 µM). The MIC ([1]; Pseudomonas aeruginosa, read-out: MIC (single use), strain P19, EA=P. clypearia water extract) was 4 µg/mL (≈ 7.32 µM), the MIC ([1]; Pseudomonas aeruginosa, read-out: MIC (single use), strain P20, EA=P. clypearia 10% ethanol extract) was 256 µg/mL (≈ 468 µM) and the MIC ([1]; Pseudomonas aeruginosa, read-out: MIC (single use), strain P20, EA=P. clypearia water extract) was 256 µg/mL (≈ 468 µM). It also gave an MIC50 [1, 7] of 32 µg/mL (≈ 58.5 µM), an MIC90 [1, 7] of 256 µg/mL (≈ 468 µM) and an MIC50 [1, 8] of 32 µg/mL (≈ 58.5 µM). The MIC90 [1, 8] was 256 µg/mL (≈ 468 µM), the MIC50 [1, 9] was 32 µg/mL (≈ 58.5 µM) and the MIC90 [1, 9] was 256 µg/mL (≈ 468 µM). The “FIC, all strains” value [2] was at most 2, the “MIC50 of the antibiotic after combined use” value [2] was 16 µg/mL and the “MIC90 of the antibiotic after combined use” value [2] was 64 µg/mL. The “reduction of the antibiotic's MIC50 vs single use” value [2] was 50%, the “reduction of the antibiotic's MIC90 vs single use” value [2] was 75% and the “share of strains with FIC ≤ 0.5” value [2] was 35%.
